Format in all cases: cell-based, human
Assay [1] deals with Rac1. Nature of the assay: Rac1 activation pull-down assay in HUVECs. The conditions noted are these: HUVEC, substance alone, test compound 50 μg/ml. An excerpt: (§1) The useful methods of analysing the activation status of Rac1 and RhoA are based on the principle of the so-called pull down assay. In this format, the GTP-bound active state of the respective protein in a cell lysate is bound to an immobilized binding partner and detected with a monoclonal antibody (MAb) specifically directed against the protein in question. The amount of the GTP-bound active state can subsequently be quantified through suitable detection methods, including but not limited to Western blotting or luminescence detection.
The lysate is added to a suitably immobilized p21-binding domain (PBD) of p21-activated protein kinase (PAK) and the amount of activated Rac1 is quantified with a Rac1-specific MAb.
HUVECs are grown to confluence under standard conditions. Before induction of Rac1 activity HUVECs were starved for 4 h by using IMDM (Gibco) without growth factor and serum supplements. Rac1 activity is induced by adding 50 μg/ml of test compound into starvation medium for 1, 5 and 10 min. Active Rac1 was isolated using Rac1/Cdc42 Assay Reagent from Upstate according to manufactures instructions. Isolates were separated on a 15% polyacrylamid gel and blotted on Nitrocellulose-Membranes (Bio-Rad). Rac1 was detected by using Anti-Rac1 clone23A8, anti-mouse from Upstate (1:250).

In assay [2] the test system is FAK. Nature of the assay: Thrombin induced FAK phosphorylation at autophosphorylation site Tyr397 in HUVEC (immunoprecipitation / western blot). The conditions noted are these: substance alone, compound 50 μg/ml, thrombin 1 U/ml. As to the method:
For measuring the inhibition of thrombin meditated FAK phosphorylation in HUVECs, the cells are incubated under suitable conditions with a suitable amount of thrombin with and without the test compound for various periods of time up to 60 min and lysed afterwards lysates were subjected to SDS-PAGE and western blot analysis with site-specific antibodies directed against FAK phosphorylated tyrosine residues.
HUVEC were incubated with FX06 (50 μg/ml), Thrombin (1 U/ml, Sigma Aldrich) and Thrombin/test compound for indicated time points. After washing with ice cold PBS (GIBCO), cells were scrapped in Tris-lysis buffer (plus 1% Triton X (Bio-Rad), NP40 (Sigma Aldrich) and proteinase and phosphatase inhibitory cocktails (Sigma Aldrich)) from culture flasks and lysed for 20 min on ice. Lysates were heavily vortexed every 5 min. After lysis lysates were centrifuged (15.000 rpm/10 min/4° C.) and supernatants were added to 50 μl sepahrose beads (Sigma Aldrich) preincubated with 1 μg total FAK antibody (BD Transduction Laboratories). Beads were agitated on the wheel for 2 h at 4° C., followed by 3 times washing with ice cold PBS, the addition of 2× sample buffer and incubation at 95° C. for 5 min. The sample buffer was then removed from the beads and applied to western blotting.
10% polyacrylamide gels were run for separating precipitated proteins. Gels were blotted onto PVDF (Bio-Rad) membranes using the hoefer semi dry blotting system. Membranes were then washed with TBS/0.5% TWEEN (TBST), blocked with 1% BSA/TBST for 1 h at RT and then incubated with the p397 FAK antibody (0.2 μg/ml; BD Transduction Laboratories) in 1% BSA/TBST over night at 4° C. For detection, a HRP-labeled goat anti-mouse Ab (1:25 000; Bio-Rad) in TBST was used and bound Abs were visualized by chemiluminescence (ECL-system, Amersham Corp., Arlington Heights, Ill.) and recorded on film.
A general note: In western blotting, separated proteins are transferred to a membrane and probed.

The subject of assay [3] is RhoA. As to the kind of experiment: Thrombin induced RhoA activation pull-down assay in HUVEC. The conditions noted are these: substance alone, thrombin 5 U/ml.
From the text: as §1
The lysate is added to a suitably immobilized rhotekin-binding domain (RBD) and the signal measured with an appropriate detection method.
HUVEC are grown to confluence under standard conditions. Before induction of Rho activity HUVEC were starved for 4 h by using IMDM (Gibco) without growth factor and serum supplements. After the starvation period 5 U/ml Thrombin (Calbiochem) or 5 U thrombin plus 50 μg/ml of test compound are added to the starvation medium for 1, 5 and 10 min. Active RhoA was isolated using Rho Assay Reagent from Upstate according to manufactures instructions. Isolates were separated on a 15% polyacrylamid gel and blotted on Nitrocellulose-Membrane (Bio-Rad). RhoA was detected by using Anti-Rho (-A, -B, -C), clone55 from Upstate (1:500).

The source of these data is US20090081192A1, “METHODS OF SCREENING FOR COMPOUNDS HAVING ANTI-INFLAMMATORY ACTIVITY” (FIBREX MEDICAL RESEARCH & DEVELOPMENT GMBH, priority 2007, published 2009).

Marks after values point to notes of the source that are not given here.

For the substance thrombin, the “Active Rac1, relative values compared to unstimulated control” value is 0.5 +/− 0.2* in assay [1] (1 min), 0.5 +/− 0.2* in assay [1] (5 min) and 1 +/− 0.1 in assay [1] (10 min). For the same substance, the results for the “FAK phosphorylation (p397), relative values compared to unstimulated control” value in assay [2] (1 min), in assay [2] (5 min) and in assay [2] (10 min) were 4.5 +/− 0.2*, 4.5 +/− 0.2* and 3.8 +/− 0.1*, respectively. The “Active RhoA, relative values compared to unstimulated control” value in assay [3] (1 min) was 2.5 +/− 0.2*; in assay [3] (5 min) it was 2.5 +/− 0.2*; in assay [3] (10 min) it was 1 +/− 0.2.
